Measured values as given in BindingDB's records for doi:10.1016/j.ejmech.2013.04.056 (Jamia Hamdard (Hamdard University), 2013).

Target: T1, Prostaglandin G/H synthase 1 (Ovis aries, UniProt P05979)
T1 sequence (P05979 whole entry): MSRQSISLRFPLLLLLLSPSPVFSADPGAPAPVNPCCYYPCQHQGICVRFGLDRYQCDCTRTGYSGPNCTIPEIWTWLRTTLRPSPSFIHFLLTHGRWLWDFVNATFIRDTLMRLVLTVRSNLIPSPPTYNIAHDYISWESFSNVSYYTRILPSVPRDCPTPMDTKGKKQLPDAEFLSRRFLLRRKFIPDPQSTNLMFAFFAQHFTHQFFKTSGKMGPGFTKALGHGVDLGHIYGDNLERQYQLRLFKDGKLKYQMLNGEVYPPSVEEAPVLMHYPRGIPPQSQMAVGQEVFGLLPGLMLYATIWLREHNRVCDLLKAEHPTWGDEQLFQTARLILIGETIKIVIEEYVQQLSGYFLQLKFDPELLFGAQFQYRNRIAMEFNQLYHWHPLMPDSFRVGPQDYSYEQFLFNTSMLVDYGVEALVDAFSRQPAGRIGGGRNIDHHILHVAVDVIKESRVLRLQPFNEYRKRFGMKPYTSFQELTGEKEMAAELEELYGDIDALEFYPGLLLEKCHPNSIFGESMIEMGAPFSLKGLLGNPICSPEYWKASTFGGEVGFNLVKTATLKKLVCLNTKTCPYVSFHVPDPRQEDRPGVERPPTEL
Assay: Inhibition of ovine COX1

Compound: COc1cc(/C=C/C(=O)c2c(O)cc(C)c(Cl)c2C)cc(OC)c1OC
- IC50: 87.5 µM
